Experimental findings from patent US9193695B2, “1, 2, 4-triazolone derivative and use thereof as an antagonist on the arginine-vasopressin 1B receptor” (TAISHO PHARMACEUTICAL CO., LTD., priority 2010, dated 2015) are described below.

The term IC50 denotes the concentration that inhibits the measured activity by half.

In the experiment the target is T1, Human V1b receptor (Homo sapiens, UniProt P47901).
T1 sequence (P47901 1-424): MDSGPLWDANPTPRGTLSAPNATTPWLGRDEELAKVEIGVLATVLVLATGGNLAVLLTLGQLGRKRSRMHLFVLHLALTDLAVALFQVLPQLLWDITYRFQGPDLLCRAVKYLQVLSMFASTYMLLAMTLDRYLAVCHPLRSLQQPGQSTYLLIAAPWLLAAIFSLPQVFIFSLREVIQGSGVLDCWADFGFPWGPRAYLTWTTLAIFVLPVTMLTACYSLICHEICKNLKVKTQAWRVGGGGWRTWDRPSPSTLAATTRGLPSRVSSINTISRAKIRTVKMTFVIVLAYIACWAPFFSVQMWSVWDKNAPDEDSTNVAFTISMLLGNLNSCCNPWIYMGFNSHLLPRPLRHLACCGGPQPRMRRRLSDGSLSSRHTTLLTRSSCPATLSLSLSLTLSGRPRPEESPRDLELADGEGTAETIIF
The experiment in a line: Binding test for V1b receptor ([3H]AVP displacement, crude membrane preparation). On the set-up: expressed in transfected cells; host or cells: 293FT cells (Invitrogen), transient expression; crude membrane preparation. Particulars: [3H]AVP 0.4 to 1 nmol/L; membranes of 293FT cells transiently expressing human V1b receptor; room temperature, 60 minutes. As to the method:
Binding Test for V1b Receptor
Human V1b receptor was transiently expressed in 293FT cells (Invitrogen). The cells were collected and were homogenated in a 15 mmol/L tris-hydrochloric acid buffer (pH 7.4, containing 2 mmol/L magnesium chloride, 0.3 mmol/L ethylenediaminetetracetic acid, and 1 mmol/L glycol ether diaminetetraacetic acid). The resulting homogenate was centrifuged at 50,000×g at 4° C. for 20 minutes. The precipitate was resuspended in a 75 mmol/L tris-hydrochloric acid buffer (pH 7.4, containing 12.5 mmol/L magnesium chloride, 0.3 mmol/L ethylenediaminetetracetic acid, 1 mmol/L glycol ether diamine tetraacetic acid, and 250 mmol/L sucrose) to give a crude membrane preparation, which was stored at −80° C. until the binding test. In the binding test, the crude membrane preparation was diluted with a 50 mmol/L tris-hydrochloric acid buffer (pH 7.4, containing 10 mmol/L magnesium chloride and 0.1% bovine serum albumin), and test compound was serially diluted with DMSO. The diluted crude membrane preparation was incubated with each test compound (final concentration of 0.01 nmol/L to 1 μmol/L) and [^3H]AVP (final concentration: 0.4 to 1 nmol/L) at room temperature for 60 minutes. After the incubation, the mixture was suction filtered through a GF/C filter pretreated with 0.3% polyethyleneimine. The GF/C filter was dried, and a scintillator was added thereto. The radioactivity remaining on the filter was measured using TopCount (PerkinElmer Inc.). The radioactivity in the presence of 10 μmol/L of unlabeled AVP was defined as 0%, and the radioactivity in the absence of unlabeled AVP was defined as 100%. A dose-response curve was plotted from radioactivities in the presence of a test compound at various concentrations, and the 50% inhibitory concentration (IC50 value) of the compound was calculated.

Structures can show the parent of a compound that is named as a salt.

As for `COc1cc(-c2nn(-c3ccc(CCN4CCC(F)(F)CC4)cc3)c(=O)n2CC(=O)NC(C)C)ccc1F` [Ca-18, 2-[1-{4-[2-(4,4-Difluoropiperidin-1-yl)ethyl]phenyl}-3-(4-fluoro-3-methoxyphenyl)-5-oxo-1,5-dihydro-4H-1,2,4-triazol-4-yl]-N-(propan-2-yl)acetamide trifluoroacetate], the IC50 lay within 10 to 100 nM.

As to `COc1cc(-c2nn(-c3ccc(CCN4CCC(C(F)(F)F)CC4)cc3)c(=O)n2CC(=O)NC(C)C)ccc1F` [Ca-19, 2-[3-(4-Fluoro-3-methoxyphenyl)-5-oxo-1-(4-{2-[4-(trifluoromethyl)piperidin-1-yl]ethyl}phenyl)-1,5-dihydro-4H-1,2,4-triazol-4-yl]-N-(propan-2-yl)acetamide trifluoroacetate], the IC50 lay in the range of 100 to 1000 nM.

Compound `COc1cc(-c2nn(-c3ccc(CCN4C[C@@H](C)O[C@@H](C)C4)cc3)c(=O)n2CC(=O)NC(C)C)ccc1F` [Ca-20, 2-[1-(4-{2-[(2R,6S)-2,6-Dimethylmorpholin-4-yl]ethyl}phenyl)-3-(4-fluoro-3-methoxyphenyl)-5-oxo-1,5-dihydro-4H-1,2,4-triazol-4-yl]-N-(propan-2-yl)acetamide] yielded an IC50 of 10 to 100 nM.

As to `COc1cc(-c2nn(-c3ccc(CCN4C(C)COCC4C)cc3)c(=O)n2CC(=O)NC(C)C)ccc1F` (stereo not drawn) [Ca-21, 2-[1-{4-[2-(3,5-Dimethylmorpholin-4-yl)ethyl]phenyl}-3-(4-fluoro-3-methoxyphenyl)-5-oxo-1,5-dihydro-4H-1,2,4-triazol-4-yl]-N-(propan-2-yl)acetamide trifluoroacetate], the IC50 lay in the range of 10 to 100 nM.

`COc1cc(-c2nn(-c3ccc(CCN4CCOCC4C)cc3)c(=O)n2CC(=O)NC(C)C)ccc1F` (stereo not drawn) [Ca-22, 2-[3-(4-Fluoro-3-methoxyphenyl)-1-{4-[2-(3-methylmorpholin-4-yl)ethyl]phenyl}-5-oxo-1,5-dihydro-4H-1,2,4-triazol-4-yl]-N-(propan-2-yl)acetamide] showed a half-inhibitory concentration (IC50) of 10 to 100 nM.

The compound `CCC1COCCN1CCc1ccc(-n2nc(-c3ccc(F)c(OC)c3)n(CC(=O)NC(C)C)c2=O)cc1` (stereo not drawn) [Ca-23, 2-[1-{4-[2-(3-Ethylmorpholin-4-yl)ethyl]phenyl}-3-(4-fluoro-3-methoxyphenyl)-5-oxo-1,5-dihydro-4H-1,2,4-triazol-4-yl]-N-(propan-2-yl)acetamide] came in with an IC50 of 10 to 100 nM.

Take `COc1cc(-c2nn(-c3ccc(CCN4CCCC4)cc3)c(=O)n2CC(=O)NC(C)C)ccc1F` [Ca-24, 2-[3-(4-Fluoro-3-methoxyphenyl)-5-oxo-1-{4-[2-(pyrrolidin-1-yl)ethyl]phenyl}-1,5-dihydro-4H-1,2,4-triazol-4-yl]-N-(propan-2-yl)acetamide formate]: the IC50 fell in the range of 10 to 100 nM.

In the case of `COc1cc(-c2nn(-c3ccc(CCN4CCN(C)CC4)cc3)c(=O)n2CC(=O)NC(C)C)ccc1F` [Ca-25, 2-[3-(4-Fluoro-3-methoxyphenyl)-1-{4-[2-(4-methylpiperazin-1-yl)ethyl]phenyl}-5-oxo-1,5-dihydro-4H-1,2,4-triazol-4-yl]-N-(propan-2-yl)acetamide trifluoroacetate], the IC50 lay within 100 to 1000 nM.

Compound `COc1cc(-c2nn(-c3ccc(CCN4CCN(C(C)=O)CC4)cc3)c(=O)n2CC(=O)NC(C)C)ccc1F` [Ca-26, 2-[1-{4-[2-(4-Acetylpiperazin-1-yl)ethyl]phenyl}-3-(4-fluoro-3-methoxyphenyl)-5-oxo-1,5-dihydro-4H-1,2,4-triazol-4-yl]-N-(propan-2-yl)acetamide trifluoroacetate] returned an IC50 of 100 to 1000 nM.

Compound `COc1cc(-c2nn(-c3ccc(CCN4CCC(C)(O)CC4)cc3)c(=O)n2CC(=O)NC(C)C)ccc1F` [Ca-27, 2-[3-(4-Fluoro-3-methoxyphenyl)-1-{4-[2-(4-hydroxy4-methylpiperidin-1-yl)ethyl]phenyl}-5-oxo-1,5-dihydro-4H-1,2,4-triazol-4-yl]-N-(propan-2-yl)acetamide trifluoroacetate] came in with an IC50 of 100 to 1000 nM.

In turn, `COc1cc(-c2nn(-c3ccc(CCN4C5CCC4CC(O)C5)cn3)c(=O)n2CC(=O)NC(C)C)ccc1F` (stereo not drawn) [Cb-4, 2-[3-(4-Fluoro-3-methoxyphenyl)-1-{5-[2-(3-hydroxy-8-azabicyclo[3.2.1]oct-8-yl)ethyl]pyridin-2-yl}-5-oxo-1,5-dihydro-4H-1,2,4-triazol-4-yl]-N-(propan-2-yl)acetamide] registered an IC50 of 8.6 nM.

`COc1cc(-c2nn(-c3ccc(CCN4C5CCC4COC5)cn3)c(=O)n2CC(=O)NC(C)C)ccc1F` [Cb-5, 2-[3-(4-Fluoro-3-methoxyphenyl)-1-{5-[2-(3-oxa-8-azabicyclo[3.2.1]oct-8-yl)ethyl]pyridin-2-yl}-5-oxo-1,5-dihydro-4H-1,2,4-triazol-4-yl]-N-(propan-2-yl)acetamide] had an IC50 of 16 nM.

Turning to `COc1cc(-c2nn(-c3ncc(CCN4CCOCC4)cn3)c(=O)n2CC(=O)NC(C)C)ccc1F` [Cd-1, 2-[3-(4-Fluoro-3-methoxyphenyl)-1-{5-[2-(morpholin-4-yl)ethyl]pyrimidin-2-yl}-5-oxo-1,5-dihydro-4H-1,2,4-triazol-4-yl]-N-(propan-2-yl)acetamide], the IC50 was determined as 166 nM.

Consider `COc1cc(-c2nn(-c3ccc(CC(C)N4C5CCC4COC5)cc3)c(=O)n2CC(=O)NC(C)C)ccc1F` (stereo not drawn) [Cd-2, 2-[3-(4-Fluoro-3-methoxyphenyl)-1-{4-[2-(3-oxa-8-azabicyclo[3.2.1]oct-8-yl)propyl]phenyl}-5-oxo-1,5-dihydro-4H-1,2,4-triazol-4-yl]-N-(propan-2-yl)acetamide], for which the concentration for half-maximal inhibition (IC50) is 0.51 nM.

As for `COc1cc(-c2nn(-c3ccc(CC(C)N4C5CCC4COC5)cn3)c(=O)n2CC(=O)NC(C)C)ccc1F` (stereo not drawn) [Cd-3, 2-[3-(4-Fluoro-3-methoxyphenyl)-1-{5-[2-(3-oxa-8-azabicyclo[3.2.1]oct-8-yl)propyl]pyridin-2-yl}-5-oxo-1,5-dihydro-4H-1,2,4-triazol-4-yl]-N-(propan-2-yl)acetamide], the IC50 was determined as 0.55 nM.

With `COc1cc(-c2nn(-c3ccc(CN4CCN(C)CC4)cc3)c(=O)n2CC(=O)NC(C)C)ccc1F` [Cd-4, 2-[3-(4-Fluoro-3-methoxyphenyl)-1-{4-[(4-methylpiperazin-1-yl)methyl]phenyl}-5-oxo-1,5-dihydro-4H-1,2,4-triazol-4-yl]-N-(propan-2-yl)acetamide], the IC50 was 863 nM.

Compound `CC(C)NC(=O)Cn1c(-c2ccc(F)c(Cl)c2)nn(-c2ccc(CCN3CCCCC3)cc2)c1=O` [Da-1, 2-[3-(3-Chloro-4-fluorophenyl)-5-oxo-1-{4-[2-(piperidin-1-yl)ethyl]phenyl}-1,5-dihydro-4H-1,2,4-triazol-4-yl]-N-(propan-2-yl)acetamide] showed an IC50 of 17 nM.

Regarding `CC(C)NC(=O)Cn1c(-c2ccc(F)c(Cl)c2)nn(-c2ccc(CCN3CC4(COC4)C3)cc2)c1=O` [Da-3, 2-[3-(3-Chloro-4-fluorophenyl)-1-{4-[2-(2-oxa-6-azaspiro[3.3]hept-6-yl)ethyl]phenyl}-5-oxo-1,5-dihydro-4H-1,2,4-triazol-4-yl]-N-(propan-2-yl)acetamide], the half-maximal inhibitory concentration (IC50) came out at 32 nM.

With `CC(C)NC(=O)Cn1c(-c2ccc(F)c(Cl)c2)nn(-c2ccc(CCN3CCCOCC3)cc2)c1=O` [Da-4, 2-[3-(3-Chloro-4-fluorophenyl)-1-{4-[2-(1,4-oxazepan-4-yl)ethyl]phenyl}-5-oxo-1,5-dihydro-4H-1,2,4-triazol-4-yl]-N-(propan-2-yl)acetamide], the IC50 turned out to be 12 nM.

The compound `CC(C)NC(=O)Cn1c(-c2ccc(F)c(Cl)c2)nn(-c2ccc(CCN3CCCCC3)cn2)c1=O` [Db-1, 2-[3-(3-Chloro-4-fluorophenyl)-5-oxo-1-{5-[2-(piperidin-1-yl)ethyl]pyridin-2-yl}-1,5-dihydro-4H-1,2,4-triazol-4-yl]-N-(propan-2-yl)acetamide] returned a half-maximal inhibitory concentration (IC50) of 16 nM.

`CC(C)NC(=O)Cn1c(-c2ccc(F)c(Cl)c2)nn(-c2ccc(CCN3CCOCC3)cn2)c1=O` [Db-2, 2-[3-(3-Chloro-4-fluorophenyl)-1-{5-[2-(morpholin-4-yl)ethyl]pyridin-2-yl}-5-oxo-1,5-dihydro-4H-1,2,4-triazol-4-yl]-N-(propan-2-yl)acetamide] had an IC50 of 7.1 nM.
